Measurements: patent US20240270821A1, “GIP/GLP1/GCG TRI-RECEPTOR AGONISTS AND USES THEREOF” (priority 2023, published 2024)
Numbering of substitutions follows the chain as printed. Like-named read-outs stand apart in the source and are kept apart here. Starred links: 1 amine or outer side, 2 acyl side, 3 side chain; linkers in the order of their positions; H or OH if unused. Non-standard residues stand in square brackets, D forms with d. Groups on a side chain read outwards from the residue. *: point of attachment. C20 diacid = O=C(O)CCCCCCCCCCCCCCCCCCC(=O)*; C18 diacid = O=C(O)CCCCCCCCCCCCCCCCC(=O)*; αMePhe(2-F) = C[C@](N)(Cc1ccccc1F)C(=O)O; γGlu = O=C(O)[C@H](CCC(=O)[*:2])N[*:1]; NMeY = CN[C@@H](Cc1ccc(O)cc1)C(=O)O; αMeF = C[C@](N)(Cc1ccccc1)C(=O)O; αMeL = CC(C)C[C@](C)(N)C(=O)O; Orn = NCCC[C@H](N)C(=O)O; AEEA = NCCOCCOCC(=O)O; Aib = CC(C)(N)C(=O)O

T1: hGIPR (Homo sapiens, UniProt P48546)
T1 sequence (P48546 22-466): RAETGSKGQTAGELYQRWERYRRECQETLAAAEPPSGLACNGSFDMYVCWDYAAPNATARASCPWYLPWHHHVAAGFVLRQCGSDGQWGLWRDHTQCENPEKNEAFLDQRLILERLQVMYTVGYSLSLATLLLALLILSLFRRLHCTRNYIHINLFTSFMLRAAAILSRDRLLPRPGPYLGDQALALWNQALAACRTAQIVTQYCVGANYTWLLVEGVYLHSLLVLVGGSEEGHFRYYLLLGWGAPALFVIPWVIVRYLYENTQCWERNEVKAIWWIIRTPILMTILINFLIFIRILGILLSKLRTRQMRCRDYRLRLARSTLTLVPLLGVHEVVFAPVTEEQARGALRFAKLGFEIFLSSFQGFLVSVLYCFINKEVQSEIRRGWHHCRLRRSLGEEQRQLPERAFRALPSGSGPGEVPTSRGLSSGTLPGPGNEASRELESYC

T2: human GIP receptor (human) (UniProt P48546)
T2 sequence (looked up): T1 sequence (P48546 22-466)

B1: Example 3 (peptide)
chain: YXQGTFTSDFSKXLDKKAQXAFIEYLLAGGPSSGEPPPSSE
modifications: synthetic construct; SITE 2: note = 2-Aminoisobutyric Acid; SITE 13: note = alpha-methyl-leucine; SITE 17: note = Lysine is chemically modified through conjugation of the epsilon-amino group of the Lysine side chain with (2-[2-(2-Amino-ethoxy)-ethoxy]-acetyl)-(gamma-Glu)-CO-(CH2) 18-CO2H; SITE 20: n
B2: Example 5 (peptide)
chain: B1 chain
modifications: synthetic construct; SITE 2: note = 2-Aminoisobutyric Acid; SITE 13: note = alpha-methyl-leucine; SITE 17: note = Lysine is chemically modified through conjugation of the epsilon-amino group of the Lysine side chain with (2-[2-(2-Amino-ethoxy)-ethoxy]-acetyl)2-(gamma-Glu)-CO-(CH2 )18-CO2H; SITE 20:
B3: Example 4 (peptide)
chain: B1 chain with S40E
modifications: synthetic construct; SITE 2: note = 2-Aminoisobutyric Acid; SITE 13: note = alpha-methyl-leucine; SITE 17: note = Lysine is chemically modified through conjugation of the epsilon-amino group of the Lysine side chain with (2-[2-(2-Amino-ethoxy)-ethoxy]-acetyl)-(gamma-Glu)-CO-(CH2) 18-CO2H; SITE 20: n

Legend:
[1] = molecular target: T1, hGIPR; assay: Functional cAMP activity in the presence of 1% HSA; format: cell-based; details: read-out: cAMP Rel EC50, hGIPR
[2] = molecular target: T1, hGIPR; assay: Functional cAMP activation in the presence of 0.1% casein (no HSA); format: cell-based; details: in the presence of 0.1% casein (no HSA); geometric mean; read-out: Relative cAMP EC50, hGIPR;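 on Relative cAMP EC50, hGIPR: intracellular cAMP rise after 30 min at 37 °C read by HTRF against a standard curve, scaled between buffer alone (0%) and top control ligand concentration (100%), four-parameter fit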;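 on Relative cAMP EC50, hGLP-1R: intracellular cAMP rise after 30 min at 37 °C read by HTRF, normalized between buffer only (0%) and maximal control ligand (100%), four-parameter variable-slope fit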;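 on Relative cAMP EC50, hGcgR: intracellular cAMP rise after 30 min at 37 °C, read by HTRF against a cAMP standard curve, scaled from buffer only (0%) to maximal control ligand response (100%)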
[3] = molecular target: hGcgR (Homo sapiens, UniProt P47871); assay: as above; format: cell-based; details: in the presence of 0.1% casein (no HSA); geometric mean; read-out: Relative cAMP EC50, hGcgR;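 further: intracellular cAMP rise after 30 min at 37 °C, read by HTRF against a cAMP standard curve, scaled from buffer only (0%) to maximal control ligand response (100%)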
[4] = molecular target: T3, hGLP-1R (Homo sapiens, UniProt P43220); assay: Functional cAMP activity in the presence of 1% HSA; format: cell-based; details: read-out: cAMP Rel EC50, hGLP-1R
Target sequence in this assay (P43220 24-463): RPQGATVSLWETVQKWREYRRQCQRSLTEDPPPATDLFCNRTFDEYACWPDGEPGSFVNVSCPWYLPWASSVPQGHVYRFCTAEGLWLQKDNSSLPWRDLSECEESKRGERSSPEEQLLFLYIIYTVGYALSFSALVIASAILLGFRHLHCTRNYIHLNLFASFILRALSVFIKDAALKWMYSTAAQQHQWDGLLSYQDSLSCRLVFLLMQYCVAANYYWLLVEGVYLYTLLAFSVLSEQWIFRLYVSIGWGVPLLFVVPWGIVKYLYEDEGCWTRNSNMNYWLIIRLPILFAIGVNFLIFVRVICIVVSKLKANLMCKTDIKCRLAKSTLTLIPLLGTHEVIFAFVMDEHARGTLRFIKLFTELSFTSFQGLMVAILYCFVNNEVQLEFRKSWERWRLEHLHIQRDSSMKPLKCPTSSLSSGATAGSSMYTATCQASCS

[5] = molecular target: T3, hGLP-1R; assay: Functional cAMP activation in the presence of 0.1% casein (no HSA); format: cell-based; details: in the presence of 0.1% casein (no HSA); geometric mean; read-out: Relative cAMP EC50, hGLP-1R;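 on Relative cAMP EC50, hGIPR: intracellular cAMP rise after 30 min at 37 °C read by HTRF against a standard curve, scaled between buffer alone (0%) and top control ligand concentration (100%), four-parameter fit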;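 on Relative cAMP EC50, hGLP-1R: intracellular cAMP rise after 30 min at 37 °C read by HTRF, normalized between buffer only (0%) and maximal control ligand (100%), four-parameter variable-slope fit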;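 on Relative cAMP EC50, hGcgR: intracellular cAMP rise after 30 min at 37 °C, read by HTRF against a cAMP standard curve, scaled from buffer only (0%) to maximal control ligand response (100%)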
Target sequence in this assay (P43220 24-463): as above

[6] = molecular target: human GcgR (Homo sapiens, UniProt P47871); assay: Functional cAMP activity in the presence of 1% HSA; format: cell-based; details: read-out: cAMP Rel EC50, hGcgR
[7] = molecular target: T3, hGLP-1R; assay: GLP-1R CHO cell β-arrestin recruitment assay; format: cell-based; design: host or cells: CHO-K1 (PathHunter, assay-ready frozen cells); details: for EC50: CHO-K1 PathHunter, β-arrestin-2, 0.1% casein, read-out: hGLP1R β-arrestin Rel EC50; for % Stimulation Max: normalized to GLP-1(7-36) as maximum control;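 on all read-outs here: luminescence read after 90 min peptide exposure at 37 °C and a further 60 min with detection reagent at room temperature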
Target sequence in this assay (P43220 24-463): as above
Target sequence in this assay (P32121 whole entry partner): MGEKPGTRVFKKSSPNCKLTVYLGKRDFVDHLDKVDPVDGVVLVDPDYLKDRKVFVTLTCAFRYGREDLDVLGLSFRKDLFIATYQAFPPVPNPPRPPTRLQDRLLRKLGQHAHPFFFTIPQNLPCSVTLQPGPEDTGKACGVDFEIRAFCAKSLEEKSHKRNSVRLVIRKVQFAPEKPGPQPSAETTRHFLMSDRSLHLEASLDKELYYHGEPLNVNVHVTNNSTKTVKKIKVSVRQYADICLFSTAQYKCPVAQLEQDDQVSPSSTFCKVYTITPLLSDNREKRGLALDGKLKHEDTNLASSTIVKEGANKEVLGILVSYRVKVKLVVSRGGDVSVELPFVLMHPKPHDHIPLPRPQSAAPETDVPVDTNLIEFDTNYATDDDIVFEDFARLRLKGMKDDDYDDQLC
Method: CHO-KI cells expressing Pro-Link-tagged Human GLP-1R and enzyme-acceptor-tagged β-arrestin-2 may be obtained from DiscoveRx and prepared as assay-ready frozen cells. Test peptides are solubilized in DMSO and serial dilutions are performed using the Echo acoustic dispenser (LabCyte). Assay media is the PathHunter Cell Assay Buffer (DiscoveRx) containing 0.1% w/v hydrolyzed Casein (Sigma). […] Plates are incubated for 90 minutes in a 37′C/5% C02 incubator and 10 μl of PathHunter detection reagent is added (DiscoveRx) and plates are incubated at room temperature for 60 minutes. Luminescence signal is measured. Peptide concentration-response curves fit to a four-parameter logistic model to calculate potency as an EC50.

[8] = molecular target: human GLP1-R (Homo sapiens, UniProt P43220); assay: GLP1-R internalization assay in HEK293 cells; format: cell-based; details: for EC50: HEK293 cells expressing SNAP-GLP-1R, read-out: GLP1R Internalization EC50
[9] = molecular target: human GLP1-R (SNAP-GLP-1R expressed in HEK293 cells) (human) (UniProt P43220); assay: cell-based or functional assay
[10] = molecular target: T2, human GIP receptor (human); assay: cell-based or functional assay
[11] = molecular target: human glucagon receptor (human) (UniProt P47871); assay: cell-based or functional assay
[12] = molecular target: Pro-Link-tagged Human GLP-1R (human) (UniProt P43220); assay: cell-based or functional assay
[13] = molecular target: T3, hGLP-1R; assay: cell-based or functional assay
Target sequence in this assay (P43220 24-463): as the sequence (P43220 24-463) above

[14] = normalized to maximum concentration of GLP-1 (100%)

Chain of hGcgR (P47871 26-477): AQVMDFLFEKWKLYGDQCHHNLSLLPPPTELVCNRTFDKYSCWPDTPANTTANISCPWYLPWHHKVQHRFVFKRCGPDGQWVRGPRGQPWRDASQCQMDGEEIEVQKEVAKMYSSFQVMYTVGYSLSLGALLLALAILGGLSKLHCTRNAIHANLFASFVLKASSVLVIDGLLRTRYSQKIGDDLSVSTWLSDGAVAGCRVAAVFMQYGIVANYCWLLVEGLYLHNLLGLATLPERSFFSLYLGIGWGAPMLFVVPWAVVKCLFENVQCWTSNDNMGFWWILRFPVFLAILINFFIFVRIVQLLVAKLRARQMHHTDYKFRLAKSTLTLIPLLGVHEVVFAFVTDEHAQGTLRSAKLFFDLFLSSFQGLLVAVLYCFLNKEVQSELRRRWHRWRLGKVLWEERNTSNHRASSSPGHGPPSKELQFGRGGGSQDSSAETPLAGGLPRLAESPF
Chain of human GcgR (P47871 26-477): as above
Chain of human glucagon receptor (human) (P47871 26-477): as above
Chain of human GLP1-R (P43220 24-463): as the sequence (P43220 24-463) above
Chain of human GLP1-R (SNAP-GLP-1R expressed in HEK293 cells) (human) (P43220 24-463): as above
Chain of Pro-Link-tagged Human GLP-1R (human) (P43220 24-463): as above

Molecule | EC50 [1] [nM] | EC50 [2] [nM] | EC50 [3] [nM] | EC50 [4] [nM] | EC50 [5] [nM] | EC50 [6] [nM] | EC50 [7] [nM] | % Stimulation Max [7] [%] | also measured
H-H[Aib]QGT[αMePhe(2-F)]TSDYSILLDKK([AEEA-γGlu-C20 diacid])AA[Aib]AFIEYLIEAGPSSGEPPPSEG-NH2 [Example 298] | 41.3 | 0.138 | 1.04 | 70.9 | 0.277 | 1570 | 3.29 | 86.4 | –
H-Y[Aib]QGTFTSDFSK[αMeL]LDKK([AEEA-AEEA-γGlu-C20 diacid])AQ[Aib]AFIEYLLAGGPSSGEPPPSSE-NH2 [Example 5] | 32.5 | 0.177 | 7.4 | 675 | 2.37 | 2670 | > 10000 | 18.4 | EC50 [8]: 53.4 nM; Internalization % TOP [8, 14]: 75%
H-Y[Aib]QGTFTSDFSK[αMeL]LDKK([AEEA-γGlu-C20 diacid])AQ[Aib]AFIEYLLAGGPSSGEPPPSSE-NH2 [Example 3] | 48.1 | 0.217 | 3.8 | 546 | 1.67 | 1590 | > 10000 | 16.5 | EC50 [8]: 49.2 nM; Internalization % TOP [8, 14]: 69.7%
H-Y[Aib]QGTFTSDYSI[αMeL]LDKIAAK([AEEA-AEEA-γGlu-C20 diacid])QFVQWLIE[Aib]GPSSGEPPPSEG-NH2 [Example 323] | 37.7 | 0.232 | 6.04 | 293 | 1.56 | 1440 | 10.8 | 44 | EC50 [8]: 28.2 nM; Internalization % TOP [8, 14]: 84.8%
H-Y[Aib]QGTFTSDYSI[αMeL]LDKIAAK([AEEA-AEEA-γGlu-C20 diacid])[Orn]FVQYLIAGGPSSGEPPPSEG-NH2 [Example 308] | 237 | – | 14.2 | 477 | 3.15 | 4950 | 16.9 | 41.4 | –
H-Y[Aib]QGTFTSDYSI[αMeL]LDKK([AEEA-AEEA-γGlu-C20 diacid])AA[Aib]AFIEYLLEGGPSSGEPPPSEG-NH2 [Example 294] | 54.1 | 0.318 | 1.07 | 554 | 2.16 | 518 | 27.7 | 35.3 | –
H-Y[Aib]QGTFTSDYSI[αMeL]LDKQAAK([AEEA-AEEA-γGlu-C20 diacid])AFVEWLLAGGPSSGEPPPSEG-NH2 [Example 305] | 92.4 | 1 | 6.73 | 415 | 1.48 | 1500 | 23.3 | 58.3 | –
H-Y[Aib]QGT[αMeF]TSDYSILLDKIAAK([AEEA-AEEA-γGlu-C18 diacid])NFIEYLVEGGPSSGEPPPSEG-NH2 [Example 307] | 65.3 | 0.446 | 1.68 | 209 | 0.836 | 1880 | 9.86 | 70.8 | –
H-Y[Aib]QGT[αMePhe(2-F)]TSDYSILLDKIAQK([AEEA-γGlu-C20 diacid])AFIEYLLEGGPSSGEPPPSEG-NH2 [Example 293] | 9.63 | 0.0587 | 4.01 | 295 | 0.994 | 1740 | 11.9 | 54.6 | –
H-Y[Aib]QGT[αMePhe(2-F)]TSDYSKILDKIAQK([AEEA-γGlu-C20 diacid])AFIEYLLEGGPSSGEPPPSEG-NH2 [Example 311] | 26.1 | 0.113 | 2.08 | 1080 | 3.36 | 2500 | 19.2 | 39.6 | –
H-Y[Aib]QGT[αMePhe(2-F)]TSDYSKLLDKIAQK([AEEA-γGlu-C20 diacid])AFIEYLIEGGPSSGEPPPSEG-NH2 [Example 304] | 48 | 0.127 | 2.31 | 172 | 0.551 | 1720 | 9.21 | 47.8 | –
H-Y[Aib]QGT[αMePhe(2-F)]TSDYSKLLDKQAQK([AEEA-γGlu-C20 diacid])QFIEYLIEGGPSSGEPPPSEG-NH2 [Example 309] | 424 | 0.32 | 9.28 | 251 | 0.808 | 3910 | 6.72 | 47.2 | –
H-[NMeY][Aib]QGT[αMeF]TSDYSILLDKIAAK([AEEA-AEEA-γGlu-C20 diacid])AFVQWLIAGGPSSGEPPPSEG-NH2 [Example 300] | 12.9 | 0.0975 | 6.54 | 98 | 1.05 | 976 | 15.7 | 40.3 | –
H-[NMeY][Aib]QGT[αMeF]TSDYSILLDKQAAK([AEEA-AEEA-γGlu-C20 diacid])AFVQWLIAGGPSSGEPPPSEG-NH2 [Example 301] | 81.8 | 0.722 | 6.73 | 82.4 | 0.641 | 1500 | 13.2 | 59.1 | –
H-[NMeY][Aib]QGT[αMeF]TSDYSILLDKQAAK([AEEA-AEEA-γGlu-C20 diacid])AFVQWLIEGGPSSGEPPPSEG-NH2 [Example 302] | 91.8 | 0.7 | 4.47 | 73.6 | 0.621 | 1370 | 11.2 | 56.6 | –
Tirzepatide [reference compound] | – | – | – | – | – | – | – | 10.5 | Internalization % TOP [8]: 60.3%
B1 | – | – | – | – | – | – | – | – | GLP1R Internalization EC50 [9]: 49.2 nM; Internalization % TOP [9]: 69.7%; Relative cAMP EC50 [10]: 0.217 nM; cAMP Rel EC50 (in the presence of 1% HSA) [10]: 48.1 nM; Relative cAMP EC50 [11]: 3.8 nM; cAMP Rel EC50 (in the presence of 1% HSA) [11]: 1590 nM; % Stimulation Max [12]: 16.5%; hGLP1R β-arrestin Rel EC50 [12]: > 10 µM; Relative cAMP EC50 [13]: 1.67 nM; cAMP Rel EC50 (in the presence of 1% HSA) [13]: 546 nM
B2 | – | – | – | – | – | – | – | – | GLP1R Internalization EC50 [9]: 53.4 nM; Internalization % TOP [9]: 75%; Relative cAMP EC50 [10]: 0.177 nM; cAMP Rel EC50 (in the presence of 1% HSA) [10]: 32.5 nM; Relative cAMP EC50 [11]: 7.4 nM; cAMP Rel EC50 (in the presence of 1% HSA) [11]: 2670 nM; % Stimulation Max [12]: 18.4%; hGLP1R β-arrestin Rel EC50 [12]: > 10 µM; Relative cAMP EC50 [13]: 2.37 nM; cAMP Rel EC50 (in the presence of 1% HSA) [13]: 675 nM
B3 | – | – | – | – | – | – | – | – | GLP1R Internalization EC50 [9]: 49.1 nM; Internalization % TOP [9]: 67.8%; Relative cAMP EC50 [10]: 0.192 nM; cAMP Rel EC50 (in the presence of 1% HSA) [10]: 62.3 nM; Relative cAMP EC50 [11]: 3.2 nM; cAMP Rel EC50 (in the presence of 1% HSA) [11]: 1580 nM; % Stimulation Max [12]: 15.8%; hGLP1R β-arrestin Rel EC50 [12]: 0.0232 µM; Relative cAMP EC50 [13]: 1.66 nM; cAMP Rel EC50 (in the presence of 1% HSA) [13]: 869 nM
